What was measured:
human CTPS1 = target: T1, human CTPS1 (Homo sapiens, UniProt P17812); assay: Human CTPS1 enzyme inhibition (ADP-Glo Max assay); format: biochemical; settings: 25° C., read-out: Human CTPS1 Enzyme Inhibition IC50, grouped by potency range
T1 construct: FLAG (GG linker + DYKDDDDK); His8 (GG linker + HHHHHHHH); purchased Proteros biostructures GmbH
T1 sequence (P17812 1-591): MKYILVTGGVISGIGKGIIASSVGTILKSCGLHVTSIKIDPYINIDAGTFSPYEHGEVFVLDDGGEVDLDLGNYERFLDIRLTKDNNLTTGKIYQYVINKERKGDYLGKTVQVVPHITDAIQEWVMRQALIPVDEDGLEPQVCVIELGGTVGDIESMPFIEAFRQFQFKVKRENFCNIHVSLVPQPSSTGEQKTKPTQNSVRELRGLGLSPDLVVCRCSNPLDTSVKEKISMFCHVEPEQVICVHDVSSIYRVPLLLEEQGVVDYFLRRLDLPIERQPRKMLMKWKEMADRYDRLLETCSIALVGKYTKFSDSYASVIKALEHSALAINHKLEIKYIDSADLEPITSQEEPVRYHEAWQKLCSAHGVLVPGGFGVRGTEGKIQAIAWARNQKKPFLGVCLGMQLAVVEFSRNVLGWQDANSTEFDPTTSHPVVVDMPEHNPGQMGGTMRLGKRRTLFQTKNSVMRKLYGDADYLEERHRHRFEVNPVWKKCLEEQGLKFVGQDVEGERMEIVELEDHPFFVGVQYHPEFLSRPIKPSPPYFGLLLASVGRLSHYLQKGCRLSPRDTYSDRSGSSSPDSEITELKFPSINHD
Description: The enzyme inhibitory activities of compounds invented against the target of interest were determined using the ADP-Glo™ Max assay (Promega, UK). Assays for human CTPS1 were performed in 1× assay buffer containing 50 mM Tris, 10 mM MgCl2, 0.01% Tween-20, pH to 8.0 accordingly. Finally, immediately before use, L-cysteine was added to the 1× assay buffer to a final concentration of 2 mM. All reagents are from Sigma-Aldrich unless specified otherwise.
Human full length active C-terminal FLAG-Hiss-tag CTPS1 (UniProtKB—P17812, CTPS1[1-591]-[…] (CTPS1[1-591]-SEQ ID NO: 1)) was obtained from Proteros biostructures GmbH.
3× human CTPS1 protein was prepared in 1× assay buffer to the final working protein concentration required for the reaction. A 2 uL volume per well of 3× human CTPS1 protein was mixed with 2 uL per well of 3× test compound (compound prepared in 1× assay buffer to an appropriate final 3× compound concentration respective to the concentration response curve designed for the compounds under test) for 10 minutes at 25° C. The enzymatic reaction was then initiated by addition of a 2 uL per well volume of a pre-mixed substrate mix (UltraPure ATP from ADP-GIo™ Max kit (0.31 mM), GTP (0.034 mM), UTP (0.48 mM) and L-glutamine (0.186 mM)) and the mixture was incubated for an appropriate amount of time within the determined linear phase of the reaction at 25° C. under sealed plate conditions with constant agitation at 500 revolutions per minute (rpm). ADP-GIo™ Max reagent was added for 60 minutes (6 μL per well) and subsequently ADP-GIo™ Max development reagent was added for 60 minutes (12 uL per well) prior to signal detection in a microplate reader (EnVision® Multilabel Reader, Perkin Elmer). Following each reagent addition over the course of the assay, assay plates were pulse centrifuged for 30 seconds at 500 rpm.
In all cases, the enzyme converts ATP to ADP and the ADP-Glo™ Max reagent subsequently depletes any remaining endogenous ATP in the reaction system. The ADP-Glo™ Max detection reagent converts the ADP that has been enzymatically produced back into ATP and using ATP as a substrate together with luciferin for the enzyme luciferase, light is generated which produces a detectable luminescence. […] The percentage inhibition produced by each concentration of compound was calculated using the equation shown below: […]
(§1) Percentage inhibition was then plotted against compound concentration, and the 50% inhibitory concentration (IC50) was determined from the resultant concentration-response curve.

Human CTPS1 Versus CTPS2 = assay: RapidFire/MS-based enzyme selectivity assay, human CTPS1 versus CTPS2; format: biochemical; settings: RapidFire/MS IC50s
Description: Human CTPS1 Versus CTPS2 Selectivity Assessment by RapidFire/MS Analysis.
The enzyme inhibitory activities against each target isoform of interest may be determined for the compounds of the invention using an optimised RapidFire high-throughput mass spectrometry (RF/MS) assay format. RF/MS assays for both human CTPS1 and CTPS2 may be performed in assay buffer consisting of 50 mM HEPES (Merck), 20 mM MgCl2, 5 mM KCl, 1 mM DTT, 0.01% Tween-20, pH to 8.0 accordingly. Human full-length active C-terminal FLAG-His-tag CTPS1 (UniProtKB—P17812, CTPS1[1-591]-[…] (CTPS1[1-591]-SEQ ID NO: 1)) may be obtained from Proteros biostructures GmbH. Human full length active C-terminal FLAG-His-Avi tagged CTPS2 (UniProtKB—Q9NRF8, CTPS2 [1-586]—[…] (CTPS2 [1-586]-SEQ ID NO: 2)) may be obtained from Harker Bio.
Human CTPS (1 or 2) protein may be prepared in 1× assay buffer to the final working protein concentration required for the reaction. A 2 uL volume per well of 2×CTPS (1 or 2) protein may be mixed with 40 nL of compound using acoustic (ECHO) delivery and incubated for 10 minutes at 25° C. Each isoform enzymatic reaction may be subsequently initiated by addition of 2 uL per well of a 2× substrate mix in assay buffer. For hCTPS1: ATP (0.3 mM), UTP (0.2 mM), GTP (0.07 mM) and L-glutamine (0.1 mM). For hCTPS2: ATP (0.1 mM), UTP (0.04 mM), GTP (0.03 mM) and L-glutamine (0.1 mM). Each mixture may be incubated for an appropriate amount of time per isoform within the determined linear phase of the reaction at 25° C. A 60 uL volume of stop solution (1% formic acid with 0.5 uM ^13C9-^15N3-CTP in H2O) may be added and the plate immediately heat-sealed and centrifuged for 10 minutes at 4,000 rpm. Following centrifugation, plates may be loaded onto the Agilent RapidFire microfluidic solid phase extraction system coupled to an API4000 triple quadrupole mass spectrometer (RF/MS) for analysis.
In all cases, the enzyme converts UTP to CTP. Highly specific and sensitive multiple reaction monitoring (MRM) MS methods may be optimised for the detection of the enzymatic reaction product, CTP, and the stable isotope labelled product standard ^13C-^15N-CTP. Readout for data analysis may be calculated as the ratio between the peak area of the product CTP and the internal standard […]. For data reporting, the following equation may be used: […]
For each screening plate, the means of the negative (DMSO) and positive control values were used for the calculation of the respective assay window (S/B) and Z′ values. The median of the respective control values was used for calculation of percent inhibition according to the following equation: […]
as §1
Fold selectivity between CTPS1 and CTPS2 was subsequently calculated according to the following equation: […]

SMILES	IC50 (human CTPS1)	Fold selectivity between CTPS1 and CTPS2 (CTPS1) (Human CTPS1 Versus CTPS2)
CCOc1cncc(-c2ccc(NC(=O)C3(c4ccnc(NS(=O)(=O)C5CC5)n4)CCN(C(C)C)CC3)nc2)n1 [P232, 4-(2-(Cyclopropanesulfonamido)pyrimidin-4-yl)-N-(5-(6-ethoxypyrazin-2-yl)pyridin-2-yl)-1-isopropylpiperidine-4-carboxamide]	100 to 1000 nM	+++ (>60 fold (+++))
CCOc1cncc(-c2ccc(NC(=O)C3(c4ccnc(NS(=O)(=O)C5CC5)n4)CCC3)nc2)n1 [P241, 1-(2-(cyclopropanesulfonamido)pyrimidin-4-yl)-N-(5-(6-ethoxypyrazin-2-yl)pyridin-2-yl)cyclobutane-1-carboxamide]	≤ 100 nM	+++ (>60 fold (+++))
CCOc1cncc(-c2ccc(NC(=O)C3(c4cncc(NS(=O)(=O)C5CC5)n4)CCCCC3)nc2)n1 [P239, 1-(6-(cyclopropanesulfonamido)pyrazin-2-yl)-N-(5-(6-ethoxypyrazin-2-yl)pyridin-2-yl)cyclohexane-1-carboxamide]	≤ 100 nM	+++ (>60 fold (+++))
CCOc1cncc(-c2ccc(NC(=O)C3(c4ccnc(NS(=O)(=O)C5(C)CC5)n4)CCOCC3)nc2)n1 [P247, N-(5-(6-ethoxypyrazin-2-yl)pyridin-2-yl)-4-(2-((1-methylcyclopropane)-1-sulfonamido)pyrimidin-4-yl)tetrahydro-2H-pyran-4-carboxamide]	100 to 1000 nM	+++ (>60 fold (+++))

Second part, the compound after the results:

IC50 (human CTPS1)	Fold selectivity between CTPS1 and CTPS2 (CTPS1) (Human CTPS1 Versus CTPS2)	SMILES
≤ 100 nM	+ (2-30 fold (+))	CCOc1cncc(-c2ccc(NC(=O)C3(c4ccnc(NS(=O)(=O)C5CC5)n4)CCOCC3)c(C)c2)n1 [P240, 4-(2-(cyclopropanesulfonamido)pyrimidin-4-yl)-N-(4-(6-ethoxypyrazin-2-yl)-2-methylphenyl)tetrahydro-2H-pyran-4-carboxamide]
≤ 100 nM	++ (>30-60 fold (++))	O=C(Nc1ccc(-c2cncc(Cl)c2)cn1)C1(c2ccnc(NS(=O)(=O)C3CC3)n2)CCOCC1 [P253, N-(5′-chloro-[3,3′-bipyridin]-6-yl)-4-(2-(cyclopropanesulfonamido)pyrimidin-4-yl)tetrahydro-2H-pyran-4-carboxamide]
≤ 100 nM	+++ (>60 fold (+++))	O=C(Nc1ccc(-c2cncc(C3CC3)n2)cn1)C1(c2ccnc(NS(=O)(=O)C3CC3)n2)CCOCC1 [P252, 4-(2-(cyclopropanesulfonamido)pyrimidin-4-yl)-N-(5-(6-cyclopropylpyrazin-2-yl)pyridin-2-yl)tetrahydro-2H-pyran-4-carboxamide]
100 to 1000 nM	+++ (>60 fold (+++))	CCOc1cncc(-c2ccc(C(=O)NC3(c4ccnc(NS(=O)(=O)C5CC5)n4)CCOCC3)nc2)n1 [P249, N-(4-(2-(cyclopropanesulfonamido)pyrimidin-4-yl)tetrahydro-2H-pyran-4-yl)-5-(6-ethoxypyrazin-2-yl)picolinamide]
